Test results from patent publication EP4523699A1, “ANTI-INFLAMMATORY DERMATOLOGICAL COMPOSITION COMPRISING GLYCEROPHOSPHOINOSITOL, A LACTOFERRIN HYDROLYSATE AND A CANNABINOID, IN PARTICULAR FOR TREATING SEBORRHEIC DERMATITIS” (FB Dermo srl, priority 2023, dated 2025).
Where two headings read alike, the source gives them in different places.

Experiments:
Format in all cases: cell-based, human
[1] = MTT assay, cytotoxicity test on HaCaT cells; details: human, hacat cells, percentage of untreated cells (NT), read-out: Cell viability
Method: (§1) Cells vitality is measured as absorbance after MTT treatment. Values are expressed as absorbance percentage over untreated (NT) cells; 1 mg/ml SDS is used as positive control; the boxes show the three highest non-toxic concentrations of each compound.
(§2) Cell lines of immortalized human keratinocyes (HaCaT cells) were grown at 37 °C, 5% CO2 in DMEM culture medium, added with 1% non-essential aminoacids and 10% FBS. The cells were plated in 96-wells multi-well plates at 10^4 cells/well, in 10% FBS -DMEM. The day after, the culture medium was removed and substituted with 100 µL of complete medium with 1% FBS; then, an MTT assay was carried out after treating cells with the single ingredients prepared in Example 1.
(§3) As positive control of toxicity, sodium dodecyl sulfate (SDS) was used, at the concentration of 1 mg/ml.
(§4) The cells were incubated for 24 hours at 37°C and 5% CO2.
(§5) At the end of each incubation, the reagent 3-(4,5-dimethylthiazol-2-yl)-2,5-diphenyltetrazolium bromide (MTT) was added to each well, at the final concentration of 0.45 mg/mL. The plates were then incubated for an additional 2 hours, at 37 °C and 5% CO2.
(§6) At the end of the incubation, the crystals of reduced MTT were solubilized by removing the medium and adding 100 µL of dimethyl sulfoxide (DMSO) to each well.
(§7) Finally, the absorbance at 595 nm of each sample was measured, using an Infinite M NANO+ (Tecan) plate reader.
(§8) The cell viability following treatment with the different substances was analyzed. Cell viability is expressed as percentage of absorbance at 595 nm of untreated cells (NT).

IL-6 = test: ELISA of IL-6 production in TNFα-inflamed HaCaT cells; details: TNFα 20 ng/ml overnight, then 24 hours of treatment
Method: Cell lines of immortalized human keratinocytes (HaCaT cells) were grown at 37 °C, 5% CO2 in DMEM culture medium, added with 1% non-essential aminoacids and 10% FBS. The cells were plated in 48-wells multi-well plates at 5*10^4 cells/ml, in 10% FBS DMEM. The day after, the culture medium was removed and substituted with 500 µL of complete medium without FBS and at the same time an inflammatory process was induced by treatment with TNFα 20 ng/ml, maintained over/night. This stimulus induces an increase in production of these cytokines compared to controls not receiving TNFα.
An experimental group of untreated cells was included, as a negative control of inflammation.
The following day, the inflamed cells were treated with each ingredient prepared in Example 1, at the highest non-toxic concentrations identified in Example 2. • Cannabidiol (CBD): 0.031 (w/v) • GPI lysine (GPI): 0.31 (w/v) • lactoferrin hydrolysate (LAC): 1 (w/v). […]
The dosage of the pro-inflammatory cytokine IL-6 (interleukin 6) was performed on 100 µL of each of the stored aliquots, following the kit protocol provided by the manufacturer. […] The anti-inflammatory effect of the compounds and compositions testes is expressed as a percentage of interleukin's production, with respect to inflamed cells (TNFα-treated) not subjected to anti-inflammatory treatment.

HaCaT cells = test: MTT assay, cytotoxicity test on HaCaT cells; details: 24 hours
Method: as §1, §2, §3, §4, §5, §6, §7, §8

| SMILES | viability at 24 h ([1]; concentration 0.063 % w/v) [%] | viability at 24 h ([1]; concentrations from 0.031 to 0.004 % w/v) [%] | activity at 0.03 % (IL-6; Homo sapiens, 0.03% (w/v)) [%] | Cell viability (HaCaT cells; percentage of absorbance at 595 nm of untreated cells (NT), concentration 0.0313 % v/v) | Cell viability (HaCaT cells; percentage of untreated cells (NT), concentrations of 0.0156 - 0.001 % v/v) | IL-6 production (% vs TNFα) Mean (IL-6; 0.031% (v/v)) [% vs TNFα] |
| --- | --- | --- | --- | --- | --- | --- |
| C=C(C)[C@@H]1CCC(C)=C[C@H]1c1c(O)cc(CCCCC)cc1O [CBD, cannabidiol] | ~50 | ~80 | 99 | – | – | – |
| O=P(O)(OC[C@H](O)CO)OC1[C@H](O)[C@H](O)C(O)[C@H](O)[C@H]1O (stereo partly drawn) [GPI Lysine, glycerophosphoinositol] | – | – | – | Above 50% | around 80% | 96 |
